The values below come from article PMC10707724, “Dual Effects of 3-epi-betulin from Daphniphyllum glaucescens in Suppressing SARS-CoV-2-Induced Inflammation and Inhibiting Virus Entry” (International Journal of Molecular Sciences, 2023).

One may read the EC50 as the midpoint of the concentration-response curve.

For series [1], the system named is SARS-CoV-2 virus spike binding to ACE2. The note with it: by computational screening; cited from earlier work.
Series [2] relates to pro-inflammatory genes (IL1B, IL6) in differentiated THP-1 cells. The format is cell-based.
The subject of another series is SARS-CoV-2 replicon. Kind of series: microbe, parasite or virus in culture. The class given is cell-based. The note with it: Severe acute respiratory syndrome coronavirus 2, HEK-293T, read-out: EC50, replication of SARS-CoV-2 replicon (luciferase activity).
In series [3] the test system is pro-inflammatory genes, IL6 and TNF, in Calu-3 cells. The format is cell-based.
Series [4] deals with SARS-CoV-2 (hCoV-19/Taiwan/NTU49/2020). The class given is cell-based. The note with it: Calu-3, 10 μM for 24 h after infection.
For series [5] the test system is unchanged. Kind of series: microbe, parasite or virus in culture. The format is cell-based.
The subject of series [6] is wild-type SARS-CoV-2 pseudovirus SEMpv. Kind of series: microbe, parasite or virus in culture. As to conditions: Severe acute respiratory syndrome-related coronavirus, BHK-ACE2, 48 h, read-out: EC50, pseudovirus entry. The format is cell-based.
Series [7] concerns wild-type SARS-CoV-2 pseudovirus Spv. Briefly: microbe, parasite or virus in culture. The format is cell-based. As to conditions: Severe acute respiratory syndrome-related coronavirus, BHK-ACE2, 48 h, read-out: EC50, pseudovirus entry.
The next series concerns VSV-pseudovirus (Gpv). The class given is cell-based.
In series [8] the test system is SARS-CoV-2 Alpha (B.1.1.7). Briefly: microbe, parasite or virus in culture. The note with it: Severe acute respiratory syndrome coronavirus 2, Vero C1008, Alpha (B.1.1.7). The class given is cell-based.
For series [9], the system named is SARS-CoV-2 Eplison (B.1.429). Kind of series: microbe, parasite or virus in culture. The class given is cell-based. As to conditions: Severe acute respiratory syndrome coronavirus 2, Vero C1008, Eplison (B.1.429).
In a further series the test system is SARS-CoV-2 Gamma (P1). Kind of series: microbe, parasite or virus in culture. The format is cell-based. As to conditions: Severe acute respiratory syndrome coronavirus 2, Vero C1008, Gamma (P1).
Series [10] deals with SARS-CoV-2 Delta (B.1.617.2). Kind of series: microbe, parasite or virus in culture. The class given is cell-based. The note with it: Severe acute respiratory syndrome coronavirus 2, Vero C1008, Delta (B.1.617.2).
The subject of series [11] is SARS-CoV-2 Omicron (BA.1). Kind of series: microbe, parasite or virus in culture. The format is cell-based. As to conditions: Severe acute respiratory syndrome coronavirus 2, Vero C1008.
The subject of a further series is SARS-CoV-2 pseudoviruses. The class given is cell-based. The note with it: pseudovirus pre-treated with compound 37 °C 1 h, BHK-ACE2 48 h, luciferase.
The test system of the next series is BHK-ACE2 cells. The note with it: BHK-ACE2, 48 h, MTS.
The test system of the next series is spike protein. As to conditions: cited from earlier work.
The mark [12] stands for this setting: compound given after pseudovirus infection, 16 h (time-of-addition study).

Molecules are shown by their SMILES.

Consider `C=C(C)[C@@H]1CC[C@]2(C(=O)O)CC[C@]3(C)[C@H](CC[C@@H]4[C@@]5(C)CC[C@H](O)C(C)(C)[C@@H]5CC[C@]43C)[C@@H]12` [Betulinic acid], for which the “inhibition of spike binding to ACE2 through the RBD domain” value in series [1] is on record as “inhibit SARS-CoV-2 virus spike binding to ACE2”.

Regarding `C=C(C)[C@@H]1CC[C@]2(CO)CC[C@]3(C)[C@H](CC[C@@H]4[C@@]5(C)CC[C@@H](O)C(C)(C)[C@@H]5CC[C@]43C)[C@@H]12` [Compound 5, 3-epi-Betulin], the “decrease in IL1B expression” value in series [2] (setting [12]) is reported as 69.5%. For the same compound, in series [2] (setting [12]), the “decrease in IL6 expression” value was determined as 82.9%. In series [2] (compound mixed with pseudovirus 1 h before infecting differentiated THP-1 cells), the “expression of pro-inflammatory genes, pre-inoculation” value is “remained unchanged”. In addition, in series [2] (compound on differentiated THP-1 cells 1 h before pseudovirus infection), the “expression of pro-inflammatory genes, pre-treatment” value is reported as “remained unchanged”. Further, the “IL1B RNA level decrease” value in series [2] (differentiated THP-1 infected with SEMpv, then compound for 16 h) is 47.3%. For the same compound, the EC50 was 11.7 ± 0.4 µM in the series with SARS-CoV-2 replicon; below 20 µM in series [5] (Severe acute respiratory syndrome coronavirus 2, Calu-3 lung epithelial cells, read-out: EC50, SARS-CoV-2 infection); 14.6 µM in series [6]; 16.3 µM in series [7]; 10.3 µM in series [8]; 12.9 µM in [9]. Also, the results for the EC50 (in the series on SARS-CoV-2 Gamma (P1); in series [10]; in series [11]) were 3.27 µM, 3.09 µM and 14.5 ± 3.9 µM, respectively. Also, the IL6 expression decrease in series [3] is reported as 66.6%. In series [3], this compound registered a TNF expression decrease of 46.0%. In addition, the “minus-stranded viral RNA decrease” value in series [4] was found to be 51.7%. In addition, the “plus-stranded viral RNA reduction” value in series [4] was 73.8%. For the same compound, the “culture supernatant viral load decrease” value in series [4] (RT-qPCR) is recorded as 61.4%. This compound also had a plaque formation decline in series [4] (plaque assay of supernatant) of 51.5%. Also, the “intracellular viral RNA decrease” value in [5] (virus pre-incubated with 20 μM, Calu-3, 24 h) was 45.6%. Besides, the “infectious virus titer decrease” value in series [5] (virus pre-incubated with 20 μM, Calu-3, 24 h, plaque assay) came to 66.3%. In the series on VSV-pseudovirus (Gpv), the “inhibitory activity against control VSV-pseudovirus” value is listed as “no inhibitory activity”. Further, in the series on SARS-CoV-2 pseudoviruses, the “inhibitory activity for virus entry” value was “highest inhibitory activity”. Besides, the cytotoxicity entry with BHK-ACE2 cells is “no cytotoxicity”.

On to `C=C(C)[C@@H]1CC[C@]2(CO)CC[C@]3(C)[C@H](CC[C@@H]4[C@@]5(C)CC[C@H](O)C(C)(C)[C@@H]5CC[C@]43C)[C@@H]12` [Compound 7, Betulin], for which the “ability to bind to the spike protein” value in the series with spike protein was “ability to bind to the spike protein”.
